Reference: patent US20060069049A1, “Methods and reagents related to foxo” (President and Fellows of Harvard College, priority 2003, published 2006)

Experiments:
[1] = biological target: Constitutively active FOXO3A constitutively active (AKT phosphorylation sites, residues not stated) (Homo sapiens) (UniProt O43524); assay: cell_activity; settings: luciferase in adult mouse muscle
[2] = biological target: Wild-type FOXO3A (Homo sapiens) (UniProt O43524); assay: cell_activity; settings: luciferase in adult mouse muscle
[3] = tested on: atrogin-1; assay: Northern blot of atrogin-1 mRNA in C2C12 myotubes; assay type: cell-based, mouse
Experimental: (§1) C2C12 mouse myoblasts (ATCC) were cultured in DMEM 10% FCS (ATCC) until the cells reached confluence. At that time, the medium was replaced with DMEM 2% horse serum (HS) (ATCC) (“differentiation medium”) and incubated for 4 days to induce myotube formation before proceeding with experiments. Pharmacological agents were variously used at the following final concentrations: dexamethasone (1 μM; Sigma), IGF-1 (10 ng/ml; Sigma), LiCl (10 mM; Sigma), LY294002 (10 μM, from 10 mM stock in DMSO, Calbiochem). For infection, myotubes were incubated with adenovirus at a multiplicity of infection (MOI) of 250 in differentiation medium for 18 h, and then medium was replaced. Under these conditions, infection efficiency was greater than 90%. Typical experiments for RNA and protein analysis were performed in 6-well plates. Myotube diameter was quantified as follows: five different fields at 100× magnification were chosen randomly and myotubes were measured using IMAGE software (Scion, Frederick, Md.) as previously performed (Rommel et al., 2001). All data are expressed as the mean of five measurements taken along the length of the myotube±SEM. Comparisons were made using the student's t test, with p<0.05 being considered statistically significant.
After incubation, myotubes were washed in PBS and total RNA was extracted using TRizo1 reagent (Invitrogen) according to the manufacturer's specifications. Northern blotting was performed as described elsewhere (Gomes et al., 2001). Briefly, total RNA was separated on formaldehyde-agarose gels, transferred to Zeta-Probe membrane (Bio-Rad) and UV-crosslinked. Membranes were hybridized with a full length mouse atrogin-1 probe, at 65 ° C., in Church buffer (Church and Gilbert, 1984), and analyzed by using a Fuji Phosphorimager. Blots were stripped and reprobed with a mouse GADPH probe (Ambion) to ensure equal-loading and gel transfer. The relative amounts of the bands were quantified by densitometry.

[4] = tested on: C2C12 myotubes; assay: Myotube diameter in C2C12 myotube cultures; assay type: cell-based, mouse; settings: dexamethasone (1 μM) for 24 hrs
Experimental: as §1

[5] = tested on: AKT; assay: Immunoblot of phospho-AKT to total AKT in C2C12 myotubes; assay type: cell-based, mouse; settings: dexamethasone treatment for 24 hrs, densitometric analysis
Experimental: Myotube protein was also extracted with TRizo1 reagent according to the manufacturer's instructions. Protein concentration was determined by BCA assay (Pierce). SDS-PAGE was performed on 4-12% gradient gels (Novex, Invitrogen) loading 20 μg protein/lane. Westerns were performed as previously (Gomes et al., 2001) and were visualized with ECL detection reagents (Amersham). […] The relative amounts of the bands were quantified by densitometry using ImageJ software.

[6] = tested on: Foxo1, 3 and Foxo4; assay: Immunoblot of phosphorylated Foxo factors in C2C12 myotubes; assay type: cell-based, mouse
Experimental: (§2) Anti-phospho-AKT (Ser473), anti-phospho-mTOR (Ser2448), anti-phospho-p70S6K (Thr389), anti-phospho-Foxo1 (Ser 256), anti-phospho-Foxo4 (Ser 193), anti-AKT, anti-p70S6K and anti-Foxo1 were purchased from Cell Signaling. Anti-phospho-Foxo3 (Thr32) and the FKHR (Foxo1)-GST fusion protein were from Upstate. All primary antibodies were rabbit potyclonal antibodies. HRP-conjugated goat anti-rabbit antibody was from Promega.
C2C12 mouse myoblasts (ATCC) were cultured in DMEM 10% FCS (ATCC) until the cells reached confluence. At that time, the medium was replaced with DMEM 2% horse serum (HS) (ATCC) (“differentiation medium”) and incubated for 4 days to induce myotube formation before proceeding with experiments. […] Myotube diameter was quantified as follows: five different fields at 100× magnification were chosen randomly and myotubes were measured using IMAGE software (Scion, Frederick, Md.) as previously performed (Rommel et al., 2001). All data are expressed as the mean of five measurements taken along the length of the myotube±SEM. […]
(§3) Myotube protein was also extracted with TRizo1 reagent according to the manufacturer's instructions. Protein concentration was determined by BCA assay (Pierce). […] The relative amounts of the bands were quantified by densitometry using ImageJ software.

[7] = tested on: S6K; assay: Immunoblot of phosphorylated S6K in C2C12 myotubes; assay type: cell-based, mouse
Experimental: as §2, §1
as §3, with “(Pierce). SDS-PAGE was performed on 4-12% gradient gels (Novex, Invitrogen) loading 20 μg protein/lane.” for “(Pierce).”

[8] = tested on: atrogin-1; settings: reported from Sacheck et al. (manuscript submitted) or Li et al. 2003a; cited from earlier work
[9] = biological target: T1, FoxoGST (Homo sapiens, UniProt Q12778); assay: Electrophoretic mobility shift assay with purified FoxoGST; assay type: binding; settings: for competition of FoxoGST-IGFBP1 complex formation by unlabeled oligonucleotide: 100-fold molar excess of cold competitor; for binding of FoxoGST to 32P-labeled oligonucleotide: gel shift; for competition of FoxoGST-AT Foxo 1 complex formation: increasing amounts of unlabeled oligonucleotide
T1 construct: purchased Upstate
Source text: Double stranded oligonucleotides were labeled by T4 Polynucleotide kinase and […] (Promega). The following pairs of oligonucleotides were used (Forkhead sites are underlined): IGFBP1: 5′-[…]-3′ (SEQ ID NO:9) and 5′-[…] (SEQ ID NO:10); SP 1:5′-[…]-3′ (SEQ ID NO:11) and 5′[…]-3′ (SEQ ID NO:12); ATFoxo 1: 5′-GGGATAAATACT-GTGCTCGGGCAG-3′ (SEQ ID NO:13) and 5′-[…]-3′ (SEQ ID NO:14). ATFoxo 1mut: 5′-[…]-3′ (SEQ ID NO:15) and 5′ […]-3′ (SEQ ID NO:16). Reactions using the Gel Shift Assay System (Promega) contained the cold competitor (100-fold molar excess over labeled oligonucleotide) and 1 μl of purified FoxoGST (Upstate), and were incubated at room temperature for 10 min. The samples were then mixed with ^32P-labeled oligonucleotides for 20 min and loaded on Novex 6% DNA retardation gels (Invitrogen). After electrophoresis the gels were dried and analyzed using a Fuji Phosphorimager system.

T1 sequence (Q12778 whole entry): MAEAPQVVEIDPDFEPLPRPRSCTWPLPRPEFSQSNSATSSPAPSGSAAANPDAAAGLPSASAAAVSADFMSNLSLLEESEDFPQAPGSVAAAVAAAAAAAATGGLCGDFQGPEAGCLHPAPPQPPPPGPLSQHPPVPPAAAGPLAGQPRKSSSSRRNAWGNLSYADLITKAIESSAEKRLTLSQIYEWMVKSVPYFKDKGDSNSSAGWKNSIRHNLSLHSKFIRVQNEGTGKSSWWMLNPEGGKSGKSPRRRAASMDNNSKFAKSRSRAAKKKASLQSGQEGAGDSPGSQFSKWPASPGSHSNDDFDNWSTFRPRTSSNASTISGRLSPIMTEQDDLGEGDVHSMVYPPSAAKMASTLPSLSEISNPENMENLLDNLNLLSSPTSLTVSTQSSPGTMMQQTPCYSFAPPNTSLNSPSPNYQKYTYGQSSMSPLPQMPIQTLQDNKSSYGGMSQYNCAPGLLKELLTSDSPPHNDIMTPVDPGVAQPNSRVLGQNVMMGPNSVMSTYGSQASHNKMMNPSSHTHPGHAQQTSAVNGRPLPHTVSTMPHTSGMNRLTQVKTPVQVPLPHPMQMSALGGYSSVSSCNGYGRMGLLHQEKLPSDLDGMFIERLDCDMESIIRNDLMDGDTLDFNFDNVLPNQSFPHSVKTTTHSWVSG
Wild-type FOXO3A (Homo sapiens), sequence (O43524 whole entry): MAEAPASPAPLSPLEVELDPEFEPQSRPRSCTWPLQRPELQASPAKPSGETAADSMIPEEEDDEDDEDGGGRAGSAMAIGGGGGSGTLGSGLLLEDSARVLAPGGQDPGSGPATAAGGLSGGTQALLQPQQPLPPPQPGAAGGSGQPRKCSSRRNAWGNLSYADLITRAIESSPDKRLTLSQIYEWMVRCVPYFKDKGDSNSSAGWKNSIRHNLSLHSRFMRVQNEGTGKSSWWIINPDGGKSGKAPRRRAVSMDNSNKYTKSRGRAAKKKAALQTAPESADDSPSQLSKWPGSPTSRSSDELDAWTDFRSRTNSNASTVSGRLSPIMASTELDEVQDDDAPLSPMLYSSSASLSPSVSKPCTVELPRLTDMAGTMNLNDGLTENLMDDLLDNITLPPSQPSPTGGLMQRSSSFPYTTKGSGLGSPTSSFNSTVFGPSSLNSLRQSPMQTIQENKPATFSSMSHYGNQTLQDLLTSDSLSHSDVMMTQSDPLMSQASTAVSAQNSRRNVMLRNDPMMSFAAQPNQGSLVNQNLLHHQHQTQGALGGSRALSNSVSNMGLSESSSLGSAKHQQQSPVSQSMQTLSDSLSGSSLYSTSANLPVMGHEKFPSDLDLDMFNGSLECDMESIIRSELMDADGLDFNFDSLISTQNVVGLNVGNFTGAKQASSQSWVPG
Constitutively active FOXO3A constitutively active (AKT phosphorylation sites, residues not stated) (Homo sapiens), sequence (O43524 whole entry): as above

Molecule: 3.5 kb atrogin-1 promoter
- activity [1]: > 20 fold
- activity [2]: 3 fold

Molecule: [Cl-].[Li+] [LiCl, reference compound]
- effect on atrogin-1 induction by dexamethasone ([3]; myotubes, 1 μM dexamethasone 24 hrs): unable to decrease

Molecule: C[C@@H]1C[C@H]2[C@@H]3CCC4=CC(=O)C=C[C@]4(C)[C@@]3(F)[C@@H](O)C[C@]2(C)[C@@]1(O)C(=O)CO [dexamethasone, reference compound]
- increase in atrogin-1 mRNA content ([3]; cultured myotubes treated with dexamethasone (1 μM) for 24 hrs): 2-3 fold
- reduction in mean myotube diameter [4]: 40%
- fall in ratio of phospho-AKT to total AKT [5]: 30%
- decrease in levels of phosphorylated Foxo1 and 3 ([6]; glucocorticoid treatment 24 hrs): at least 30%
- decrease in level of phosphorylated S6K ([7]; dexamethasone treatment 24 hrs): 10%

Molecule: OO [hydrogen peroxide]
- effect on atrogin-1 expression in myotubes [8]: expression of atrogin-1 rose

Molecule: ATFoxo 1: double stranded oligonucleotide with atrogin-1 promoter forkhead site ATAAATA (SEQ ID NO:13/14) (chain 1 GGGATAAATACTGTGCTCGGGCAG; chain 2 CTGCCCGAGCACAGTATTTATCCC; listed as DNA, chemistry not fully specified)
- competition of FoxoGST-IGFBP1 complex formation by unlabeled oligonucleotide [9]: markedly reduced
- binding of FoxoGST to 32P-labeled oligonucleotide [9]: bound
- competition of FoxoGST-AT Foxo 1 complex formation [9]: able to block

Molecule: ATFoxo 1mut: mutated version of the site, ATCACTA (SEQ ID NO:15/16) (chain 1 GGGATCACTACTGTGCTCGGGCAG; chain 2 CTGCCCGAGCACAGTAGTGATCCC; listed as DNA, chemistry not fully specified)
- competition of FoxoGST-IGFBP1 complex formation by unlabeled oligonucleotide [9]: did not prevent complex formation
- binding of FoxoGST to 32P-labeled oligonucleotide [9]: did not bind
- competition of FoxoGST-AT Foxo 1 complex formation [9]: not

Molecule: IGF-1: insulin-like growth factor-1, used at 10 ng/ml (Sigma)
- effect on atrogin-1 mRNA in either model of atrophy ([3]; IGF-1 10 ng/ml added to starved (6 hrs) or dexamethasone-treated (24 hrs) myotubes): suppressed atrogin-1 mRNA to the level in untreated myotubes
- effect of IGF-1 on atrogin-1 mRNA ([3]; cells expressing the constitutively active Foxo3): did not reduce
- decrease in atrogin-1 mRNA content by IGF-1 ([3]; cells expressing the wild type Foxo3, IGF-1 10 ng/ml): 3 fold
- effect on phosphorylated Foxo1, 3 and 4 in either model of atrophy ([6]; IGF-1 10 ng/ml, starved or dexamethasone-treated myotubes): increased the levels of phosphorylated Foxo1, 3, and 4
- S6K phosphorylation after IGF-1 addition ([7]; dexamethasone-treated cultures): restored S6K phosphorylation
- S6K phosphorylation after IGF-1 addition ([7]; starved cells): remained largely dephosphorylated

Molecule: oligonucleotide containing an SP1 binding site: unrelated oligonucleotide containing an SP1 binding site (SEQ ID NO:11/12) (chain 1 ATTCGATCGGGGCGGGGCGAG; chain 2 CTCGCCCCGCCCCGATCGTAA; listed as DNA, chemistry not fully specified) [reference compound]
- competition of FoxoGST-IGFBP1 complex formation by unlabeled oligonucleotide [9]: did not prevent complex formation

B1: IGFBP1 oligonucleotide: control oligonucleotide containing a known forkhead site from the IGFBP1 promoter (SEQ ID NO:9/10) (nucleic acid)
chain 1: CTAGCAAGCAAAACAAACTTATTTTGAACACGGGG
chain 2: CCCCGTGTTCAAAATAAGTTTGTTTTGCTTGCTAG
modifications: listed as DNA, chemistry not fully specified
- competition of FoxoGST-IGFBP1 complex formation by unlabeled oligonucleotide [9]: prevented formation
- binding of FoxoGST to 32P-labeled oligonucleotide [9]: bound
